Assay results taken from ChEMBL document CHEMBL3400117, “2-Aminophenanthroline dimer stabilized the C-C mismatched duplex DNA” (Bioorg Med Chem, 2015).

What was measured:
[1] = Binding affinity to 5'-CTAACAGAATG-3'/3'-GATTGACTTAC-5' duplex DNA (unknown origin) in sodium cacodylate buffer assessed as change in melting temperature at 10 uM at pH 7
[2] = Binding affinity to 5'-CTAACTGAATG-3'/3'-GATTGGCTTAC-5' duplex DNA (unknown origin) in sodium cacodylate buffer assessed as change in melting temperature at 10 uM at pH 7
[3] = Binding affinity to 5'-CTAACTGAATG-3'/3'-GATTGTCTTAC-5' duplex DNA (unknown origin) in sodium cacodylate buffer assessed as change in melting temperature at 10 uM at pH 7
[4] = Binding affinity to 5'-CTAACTGAATG-3'/3'-GATTGACTTAC-5' duplex DNA (unknown origin) in sodium cacodylate buffer assessed as change in melting temperature at 10 uM at pH 7
[5] = Binding affinity to 5'-CTAACCGAATG-3'/3'-GATTGCCTTAC-5' duplex DNA (unknown origin) in sodium cacodylate buffer assessed as change in melting temperature at 10 uM at pH 7
[6] = Binding affinity to 5'-CTAACAGAATG-3'/3'-GATTGCCTTAC-5' duplex DNA (unknown origin) in sodium cacodylate buffer assessed as change in melting temperature at 10 uM at pH 7
[7] = Binding affinity to 5'-CTAACAGAATG-3'/3'-GATTGGCTTAC-5' duplex DNA (unknown origin) in sodium cacodylate buffer assessed as change in melting temperature at 10 uM at pH 7
[8] = Binding affinity to 5'-CTAACCGAATG-3'/3'-GATTGGCTTAC-5' duplex DNA (unknown origin) in sodium cacodylate buffer assessed as change in melting temperature at 10 uM at pH 7
[9] = Binding affinity to 5'-CTAACGGAATG-3'/3'-GATTGGCTTAC-5' duplex DNA (unknown origin) in sodium cacodylate buffer assessed as change in melting temperature at 10 uM at pH 7
[10] = Binding affinity to 5'-CTAACTGAATG-3'/3'-GATTGCCTTAC-5' duplex DNA (unknown origin) in sodium cacodylate buffer assessed as change in melting temperature at 10 uM at pH 7
[11] = Binding affinity to 5'-TCCAG_GCAAC-3'/3'-AGGTCACGTTG-5' duplex DNA (unknown origin) in sodium cacodylate buffer assessed as change in melting temperature at 20 uM at pH 7
[12] = Binding affinity to 5'-TCCAG_GCAAC-3'/3'-AGGTCTCGTTG-5' duplex DNA (unknown origin) in sodium cacodylate buffer assessed as change in melting temperature at 20 uM at pH 7
[13] = Binding affinity to 5'-TCCAG_GCAAC-3'/3'-AGGTCCCGTTG-5' duplex DNA (unknown origin) in sodium cacodylate buffer assessed as change in melting temperature at 20 uM at pH 7
[14] = Binding affinity to 5'-TCCAG_GCAAC-3'/3'-AGGTCGCGTTG-5' duplex DNA (unknown origin) in sodium cacodylate buffer assessed as change in melting temperature at 20 uM at pH 7
[15] = Binding affinity to 5'-TCCAGGCAAC-3'/3'-AGGTCCGTTG-5' duplex DNA (unknown origin) in sodium cacodylate buffer assessed as change in melting temperature at 20 uM at pH 7
[16] = Binding affinity to 5'-GCTAAGCCAATGA-3'/3'-CGATTCCGTTACT-5' duplex DNA (unknown origin) assessed as change in melting temperature
[17] = Binding affinity to 5'-GCTAAGCAAATGA-3'/3'-CGATTCCTTTACT-5' duplex DNA (unknown origin) assessed as change in melting temperature
[18] = Binding affinity to 5'-GCTAAACTAATGA-3'/3'-CGATTTCATTACT-5' duplex DNA (unknown origin) assessed as change in melting temperature
[19] = Binding affinity to 5'-GCTAACCTAATGA-3'/3'-CGATTGCATTACT-5' duplex DNA (unknown origin) assessed as change in melting temperature
[20] = Binding affinity to 5'-GCTAAACAAATGA-3'/3'-CGATTTCTTTACT-5' duplex DNA (unknown origin) assessed as change in melting temperature
[21] = Binding affinity to 5'-GCTAAGCTAATGA-3'/3'-CGATTCCATTACT-5' duplex DNA (unknown origin) assessed as change in melting temperature
[22] = Binding affinity to 5'-CTAACCGAATG-3'/3'-GATTGCCTTAC-5' duplex DNA (unknown origin) in sodium cacodylate buffer assessed as change in melting temperature at pH 7
[23] = Binding affinity to 5'-GCTAACCAAATGA-3'/3'-CGATTGCTTTACT-5' duplex DNA (unknown origin) assessed as change in melting temperature
[24] = Binding affinity to 5'-GCTAATCAAATGA-3'/3'-CGATTACTTTACT-5' duplex DNA (unknown origin) assessed as change in melting temperature
[25] = Binding affinity to 5'-GCTAACCCAATGA-3'/3'-CGATTGCGTTACT-5' duplex DNA (unknown origin) assessed as change in melting temperature
[26] = Binding affinity to 5'-GCTAACCGAATGA-3'/3'-CGATTGCCTTACT-5' duplex DNA (unknown origin) assessed as change in melting temperature

SMILES | ΔTm [1] | ΔTm [2] | ΔTm [3] | ΔTm [4] | ΔTm [5] | ΔTm [6] | ΔTm [7] | ΔTm [8] | ΔTm [9] | ΔTm [10] | also measured
O=C(CCNCCC(=O)Nc1ccc2ccccc2n1)Nc1ccc2ccccc2n1 | -0.5 °C | -0.5 °C | 0.2 °C | -0.1 °C | 2.6 °C | 1.6 °C | -0.4 °C | 0.2 °C | -0.2 °C | 0.7 °C | 
NCCC(=O)Nc1ccc2ccc3cccnc3c2n1 | 1.3 °C | 1.3 °C | 1.3 °C | 0.9 °C | 1.6 °C | 0.5 °C | 1.2 °C | 0.6 °C | 0.8 °C | 0.4 °C | ΔTm [11]: 3.4 °C; ΔTm [12]: 3.6 °C; ΔTm [13]: 6 °C; ΔTm [14]: 3 °C; ΔTm [15]: 0.2 °C
O=C(CCNCCC(=O)Nc1ccc2ccc3cccnc3c2n1)Nc1ccc2ccccc2n1 | 0 °C | 0.1 °C | 1.5 °C | -0.1 °C | 2.6 °C | 0.4 °C | -0.2 °C | 0.3 °C | 0.3 °C | 2.3 °C | 
O=C(CCNCCC(=O)Nc1ccc2ccc3cccnc3c2n1)Nc1ccc2ccc3cccnc3c2n1 | 2.1 °C | 0.3 °C | 1.4 °C | 0.4 °C | 7.8 °C | 4.4 °C | 1.5 °C | 0.3 °C | 1.4 °C | 4.4 °C | ΔTm [16]: 6.5 °C; ΔTm [17]: 4.2 °C; ΔTm [18]: 5.7 °C; ΔTm [19]: 5.6 °C; ΔTm [20]: 4 °C; ΔTm [21]: 5.6 °C; Activity [22]: Dose-dependent effect; ΔTm [23]: 3.8 °C; ΔTm [24]: 4.4 °C; ΔTm [25]: 4.7 °C; ΔTm [26]: 4 °C
